Results as given in PMC6692352, “DF2726A, a new IL-8 signalling inhibitor, is able to counteract chemotherapy-induced neuropathic pain” (Scientific Reports, 2019).

Columns and labels:
F11 cells = experiment: Cell viability assay in F11 neuronal cells; details: 24 h, 5–60 µM
Protocol: For the subsequent experiments, DF2726A was used at a final concentration of 1 µM, and oxaliplatin at a final concentration of 20 µM. For comparison, paclitaxel alone or in combination with DF2726A was also used.
F11 hybridoma cells (ECACC 08062601), chosen as a model of DRG neurons[22],[32],[33] were cultivated in DMEM (Euroclone, Milan, Italy) supplemented with 10% FBS (Sigma-Aldrich, St. Louis, MO, USA), 1% penicillin/streptomycin (Euroclone, MI, Italy) and 1% glutamine (Euroclone) at 37 °C, in humidified 95% air with 5% CO2 atmosphere. For all the experiments, cells were used at 18th passage.
Supplementary Fig. 2: Effect of DF2726A, oxaliplatin and paclitaxel treatment on neuronal cell
viability. Cell viability assay of F11 cells after treatment at different concentrations of DF 2726A
(DF; 1-20 µM), oxaliplatin (OXA, 5-60 µM), paclitaxel (PAC, 5-20 nM) and the combination of 20
µM oxaliplatin+DF2726A (Oxa+DF) and paclitaxel+DF2726A (PAC+DF) at 24 h. Data are means

[1] = parameters: method as in PMID 28423567; details: p.o. administration ref 22; cited from earlier work

SMILES | Neuronal cell viability (F11 cells) | half-life [1] [h]
O=C1[O][Pt]2([NH][C@@H]3CCCC[C@H]3[NH]2)[O]C1=O [oxaliplatin, reference compound] | ineffective in modulating neuronal cell viability | 
CC(C)Cc1ccc([C@@H](C)C(=O)NS(C)(=O)=O)cc1 [reparixin] |  | 1.78
